Experimental data taken from the supplement of paper PMC10307832.

Experiments:
Assay in all cases: relative viability (nuclei count vs DMSO), 5 days (fraction); higher = more cells survive
[1] = compound: CC1=NN=C(O1)C2=NN=C(C=C2)N3CCC(CC3)OC4=C(C=CC(=C4)F)Cl + Cc1nc(Nc2ncc(C(=O)Nc3c(C)cccc3Cl)s2)cc(N2CCN(CCO)CC2)n1 [Dasatinib] (partner 0.075 µM)
Outline: (§1)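 Each reported value is a median over duplicate plates. It expresses relative viability: treated-well nuclei count divided by vehicle-well nuclei count. Lung cancer cell lines in 1536-well plates were dosed by pin tool a day after seeding, alone with one drug or with a fixed anchor-drug dose plus five library-drug doses (not always all listed) in √10 steps, and nuclei were counted after 5 days.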

[2] = compound: CC1=NN=C(O1)C2=NN=C(C=C2)N3CCC(CC3)OC4=C(C=CC(=C4)F)Cl + CC(=O)c1c(C)c2cnc(Nc3ccc(N4CCNCC4)cn3)nc2n(C2CCCC2)c1=O [Palbociclib] (partner 0.5 µM)
Outline: as §1

[3] = compound: CC(C)C[C@@H](C(=O)N[C@H](C(=O)OC1CCCC1)c1ccccc1)[C@H](O)C(=O)NO [Tosedostat] + C[C@]1(O)C[C@@H](c2nc(-c3ccc4ccc(-c5ccccc5)nc4c3)c3c(N)nccn32)C1 [Linsitinib] (partner 1 µM)
Outline: as §1

[4] = compound: CC(C)C[C@@H](C(=O)N[C@H](C(=O)OC1CCCC1)c1ccccc1)[C@H](O)C(=O)NO [Tosedostat] + CC(C)C[C@H](NC(=O)[C@H](Cc1ccccc1)NC(=O)c1cnccn1)B(O)O [Bortezomib] (partner 0.002 µM)
Outline: as §1

Cell Line	relative viability ([1]; first compound 0.253 µM)	relative viability ([1]; first compound 0.8 µM)	relative viability ([1]; first compound 2.53 µM)	relative viability ([1]; first compound 8 µM)	relative viability ([2]; first compound 0.253 µM)	relative viability ([2]; first compound 0.8 µM)	relative viability ([2]; first compound 2.53 µM)	relative viability ([2]; first compound 8 µM)	relative viability ([3]; first compound 0.02 µM)	relative viability ([3]; first compound 0.06325 µM)	relative viability ([3]; first compound 0.2 µM)	relative viability ([3]; first compound 0.6325 µM)	relative viability ([3]; first compound 2 µM)	relative viability ([4]; first compound 0.02 µM)	relative viability ([4]; first compound 0.06325 µM)	relative viability ([4]; first compound 0.2 µM)	relative viability ([4]; first compound 0.6325 µM)	relative viability ([4]; first compound 2 µM)
NCI-H522	0.856	0.842	0.974	0.938	1.1	1.01	0.65	1.05										
NCI-H596	0.558	0.602	0.647	0.506					1.21	1.07	1.22	1.05	1.06	1.32	1.19	1	1.12	1.04
NCI-H1299									1.13	0.878	0.984	0.878	0.839	1.05	1	1.01	0.965	0.893
NCI-H1395	0.448	0.405	0.401	0.427	0.562	0.592	0.599	0.626	0.993	0.944	1.03	0.821	0.782					
NCI-H1563	0.465	0.48	0.55	0.452					1.25	1.16	1.26	1.29	1.4	0.924	0.818	0.943	0.948	0.8
NCI-H1623	0.522	0.492	0.498	0.441														
NCI-H1648					0.258	0.278	0.263	0.244										
NCI-H1650		0.342	0.335	0.28	0.253	0.334	0.3	0.292						0.207	0.182	0.228	0.197	0.192
NCI-H1703									0.56	0.628	0.553	0.556	0.473	0.447	0.297	0.235	0.221	0.301
NCI-H1793	0.378	0.342	0.448	0.371	0.304	0.314	0.342	0.301	0.678	0.984	0.711	0.641	0.873					
NCI-H1944	0.212	0.23	0.224	0.264	0.238	0.278	0.249	0.246	1.17	1.14	1.28	1.12	1.02					
NCI-H2170	0.351	0.332	0.374	0.316	0.196	0.22	0.22	0.175										
NCI-H2342	0.286	0.293	0.325	0.274	0.478	0.491	0.458	0.417										
SK-MES-1	0.359	0.384	0.419	0.42	0.28	0.355	0.341	0.352	1.2	1.05	1.06	1.01	0.983					
SW 900			0.642	0.542		0.574	0.504	0.463										
